According to patent publication US11613535B2, “Compounds for MYC inhibition” (THE SCRIPPS RESEARCH INSTITUTE, priority 2018, dated 2023):
Values after ≈ are worked out from the molar mass of the structure shown.

Key:
[1] = Solubility analysis by dynamic light scattering; format: physicochemical
Protocol: (§1) Compound solubilities were measured by dynamic light scattering (Table 1). […] 2. Detection was conducted on a graphene surface. 3. A His-tagged bHLH construct was immobilized on a chip for site-specific functionalization. […] Compounds were also screened against a monomeric form of MAX (mMAX), as well as MYC-MAX and MAX-MAX dimers.
Solubility analysis. Compounds were analyzed for solubility by dynamic light scattering on a DynaPro NanoStar detector (Wyatt Technology). Compounds were dissolved in MES (pH 6.0) from a 1000×DMSO stock at varying concentrations. Samples were analyzed for aggregation and the maximal concentration at which aggregates were not observed was used as the measure of solubility.

His-tagged MYC = molecular target: T1, His-tagged MYC (Homo sapiens, UniProt P01106); experiment: Bio-FET relative binding studies; conditions: Relative to 5a Req; compounds at 10 μM in MES (pH 6.0) with 3% DMSO
T1 construct: A His-tagged bHLH construct was immobilized on a chip for site-specific functionalization; made in house; host or cells: BL21 E. coli
T1 sequence (P01106 369-421 limits assumed): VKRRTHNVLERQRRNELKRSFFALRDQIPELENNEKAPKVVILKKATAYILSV
Protocol: as §1
Protein expression and purification. His-tagged MYC, mMAX, MYC-MAX, and MAX-MAX constructs were expressed in BL21 E. coli cells and purified as previously described.^10
FET functionalization and regeneration. FET experiments were conducted on an Agile R100 (Nanomedical Diagnostics) at ambient temperature. Chips were functionalized with Ni-NTA according to manufacturer protocols. […] Ni-NTA functionalized chips were regenerated via treatment with 250 mM imidazole for 30 mins, followed by extensive washing in MES, then reintroduction of His-tagged protein.
Relative binding studies. Test compounds were dissolved to desired concentration in MES (pH 6.0) buffer with 3% DMSO. Protein-bound chips were initialized and rinsed in MES buffer with 3% DMSO. For relative binding studies, 6-8 test compounds (including 5a) were analyzed at 10 μM in a single run, and the Req determined and compared to that of 5a. Compounds were tested a minimum of three times across different chips.

MYC = molecular target: T2, MYC (Homo sapiens, UniProt P01106); experiment: MYC affinity assessment by Bio-FET concentration curve; format: binding; conditions: concentration for ½ Rmax, averaged across three chips
T2 construct: A His-tagged bHLH construct was immobilized on a chip for site-specific functionalization; made in house; host or cells: BL21 E. coli
T2 sequence (P01106 369-421 limits assumed): as above
Protocol: (§2) A 10 mg/kg i.v. PK study was conducted in mouse to determine if these favored properties translated into improved PK. Non-compartmental analysis of the mouse PK followed by allometric scaling to the rat afforded a comparison to the rat PK study conducted previously on 5a and is shown in Table 2.
FET functionalization and regeneration. FET experiments were conducted on an Agile R100 (Nanomedical Diagnostics) at ambient temperature. Chips were functionalized with Ni-NTA according to manufacturer protocols. Surface-bound Ni-NTA sites were then bound to His-tagged protein by 15 min incubation with ˜100 nM protein in 50 mM MES (pH 6.0). Ni-NTA functionalized chips were regenerated via treatment with 250 mM imidazole for 30 mins, followed by extensive washing in MES, then reintroduction of His-tagged protein.
MYC affinity assessment. […] Varying concentrations of 5g were allowed to equilibrate with MYC, and the Req values plotted against the concentration. […] This was repeated across three chips and the affinity averaged across those three runs.

[2] = PK analysis of 5g, 10 mg/kg i.v.; format: in vivo, C57BL/6 mice
Protocol: as §2
PK analysis. Pharmacokinetic analysis of 5g was conducted by Explora Biolabs. 12 C57BL/6 (6 male, 6 female) mice were administered 5g at 10 mg/kg by IV injection. Blood samples were collected at 2 min and 0.08, 0.25, 0.5, 1, 2, 8 and 24 hours post-injection. Bioanalysis was conducted by Integrated Analytical Solutions by processing through a Shimadzu VP series 10 system LC followed by mass analysis on an Applied Biosystems/MDS SCIEX API 3000 triple quadrupole mass spectrometer. All procedures involving the care and use of animals was approved by the IACUC at Explora BioLabs.

[3] = system: CEF transfected with ATG-MYC; experiment: CEF focus assay (microtumor formation); format: cell-based, chicken; conditions: Measured in CEF transfected with ATG-MYC
Excerpt: The lead exemplified compound in the prior patent application is termed KJ-Pyr-9 herein. […] CEF assay.

Row | Solubility ([1]; pH 6) | FET Req (His-tagged MYC) | Solubility ([1]; Measured by DLS in MES (pH 6.0) with <0.1% DMSO) | Kd (MYC) | improvement in exposure (AUC) ([2]; 5g versus 5a) | mean residence time ([2]; 5g, 10 mg/kg i.v. mouse PK, comparison) | AUC ([2]; 5g, 10 mg/kg i.v., C57Bl6 mice) | CI ([2]; 5g, 10 mg/kg i.v., C57Bl6 mice) | Half-life ([2]; 5g, 10 mg/kg i.v., C57Bl6 mice) | Vss ([2]; 5g, 10 mg/kg i.v., C57Bl6 mice) | MRT ([2]; both sexes, C57BL/6, mouse, blood, iv, 5g, 10 mg/kg i.v., C57Bl6 mice) | IC50 ([3]; Gallus gallus) | IC50 [3] | SMILES
1 | 10 µM (≈ 2.46 µg/mL) | 0% |  |  |  |  |  |  |  |  |  |  |  | N#Cc1ccc(-c2cccc(-c3ccco3)n2)cc1 [Compound 7b]
2 |  | 97% | 125 µM (≈ 52.9 µg/mL) | 0.0125 ± 0.0041 µM | 30 fold | 4.8 h | 44,000 ng*h/mL | 3.8 mL/min/kg | 4.8 h | 0.97 L | 4.3 h | 5 µM |  | NC(=O)c1ccc(-c2cc(-c3ccc(-c4nccs4)cc3)nc(-c3ccco3)c2)cc1 [Compound 5g]
3 | 32 µM (≈ 9.58 µg/mL) | 0% |  |  |  |  |  |  |  |  |  |  | 10 µM | N#Cc1ccc(-c2cc(-c3ccc(C(N)=O)cc3)ccn2)cc1 [Compound 7a]
